Test results from article PMC13304707 (Acta Pharmaceutica Sinica. B, 2025).

Key:
[1] = Cell cytotoxicity, CCK-8 assay; assay type: cell-based; details: African green monkey, Vero E6 cells
VPS34 = details: read-out: enzymatic inhibitory potency against VPS34; ref [30], [31], [32], [33]; cited from earlier work
CYP3A4 = CYP3A4 (Homo sapiens, UniProt P08684); experiment: Screening of cytochrome P450 enzymes responsible for degradation; assay type: in vitro ADME; details: liver microsomes, CYP450 screening
CYP3A4, sequence (P08684 whole entry, species assumed): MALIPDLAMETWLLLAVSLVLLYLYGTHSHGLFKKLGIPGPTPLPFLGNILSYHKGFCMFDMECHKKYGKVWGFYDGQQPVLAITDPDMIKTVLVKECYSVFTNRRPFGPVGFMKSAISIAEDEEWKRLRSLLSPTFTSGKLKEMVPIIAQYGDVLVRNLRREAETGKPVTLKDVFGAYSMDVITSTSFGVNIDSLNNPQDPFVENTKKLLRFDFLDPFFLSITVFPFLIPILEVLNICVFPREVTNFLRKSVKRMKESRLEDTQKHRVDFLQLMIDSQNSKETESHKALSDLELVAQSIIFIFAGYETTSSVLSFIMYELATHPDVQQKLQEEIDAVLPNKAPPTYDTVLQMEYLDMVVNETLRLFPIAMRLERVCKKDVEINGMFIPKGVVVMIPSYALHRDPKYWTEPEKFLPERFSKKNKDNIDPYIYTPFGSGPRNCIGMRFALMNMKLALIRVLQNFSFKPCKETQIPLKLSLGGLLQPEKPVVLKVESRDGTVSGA

[2] = Degradation in liver microsomes; assay type: in vitro ADME
[3] = Plasma PK profile after single intraperitoneal injection; assay type: in vivo, C57BL/6 mice
[4] = Tissue distribution after ip administration; assay type: in vivo, mice; details: 10 mg/kg ip

Row | SMILES | CC50 at 48 h [1] | IC50 (VPS34) | degradation upon addition of 6β-hydroxytestosterone, a specific inhibitor of CYP3A4 (CYP3A4) | time to extensive degradation to minimal levels in liver microsomes [2] | AUC(0-t) ([3]; C57BL/6, mouse, ip, 10 mg/kg) | Cmax ([3]; C57BL/6, mouse, ip, 10 mg/kg) | half-life ([3]; C57BL/6, mouse, ip, 10 mg/kg) | Tmax ([3]; C57BL/6, mouse, ip, 10 mg/kg, Tmax, mice, 10 mg/kg ip) | CL ([3]; mice, 10 mg/kg ip) | time to Cmax in tissues (cardiorespiratory and renal systems) [4]
1 | Nc1ncc(-c2ccnc(Nc3ccncc3)n2)c(CC2CC2)n1 [PIK-III] | 45.8 µM | 0.018 µM | – | – | – | – | – | – | – | –
2 | C[C@@H]1COCCN1c1cc(=O)n2c(n1)N(Cc1cncc(Cl)c1)[C@H](C(F)(F)F)CC2 [SAR405] | […] | […] | almost completely attenuated | ≤ 15 min | […] | 5.82 ± 0.723 µg/mL | […] | 8.4 ± 6 min | […] | ≤ 10 min
3 | CC(C)(O)CNc1ncc(-c2ccnc(Nc3ccnc(Cl)c3)n2)c(CC2CC2)n1 [VPS34-IN-1] | 11 µM | 0.025 µM | – | – | – | – | – | – | – | –
4 | CC(C)C(=O)CN1c2nc(N3CCOC[C@H]3C)cc(=O)n2CC[C@H]1C(F)(F)F [VPS34-IN-2, (2S)-8-[(3R)-3-methylmorpholin-4-yl]-1-(3-methyl-2-oxobutyl)-2-(trifluoromethyl)-3,4-dihydro-2H-pyrimido[1,2-a]pyrimidin-6-one] | 54.5 µM | – | – | – | – | – | – | – | – | –
